Measurements published in patent US20180133221A1, “ADMINISTRATION OF UBIQUITIN-ACTIVATING ENZYME INHIBITOR AND CHEMOTHERAPEUTIC AGENTS” (Millennium Pharmaceuticals, Inc., priority 2014, published 2018).
Read-outs that look alike come from different tables or passages of the source.

How the values were obtained:
[1] = system: CTG-0165 human lung NSCLC xenograft; assay: CTG-0165 xenograft model, Compound 1 and cisplatin; format: in vivo, Mus musculus/nu/nu mice; conditions: for Tumor Volume Day 21: in mm³ (unit assumed)
Description: CTG-0165 tumor fragments (approximately 2×2×3 mm^3) were implanted into the subcutaneous space in the right dorsal flank of female Mus musculus/nu/nu mice (age 6-9 weeks, Harlan Laboratories, Madison, Wis., USA) using a 13-gauge trocar. When the mean tumor volume reached approximately 260 mm^3, the animals were randomized into 8 treatment groups (n=5/group).
Cisplatin (Teva Pharmaceuticals) is formulated in 0.9% saline and administered by IV injection once weekly (QW) at 7.5 mg/kg. The once weekly schedule is also described as every 7 days (Q7D).
(§1) Compound 1 [((1R,2R,3S,4R)-2,3-dihydroxy-4-(2-(3-(trifluoromethylthio)-phenyl)pyrazolo[1,5-a]pyrimidin-7-ylamino)cyclopentyl)methyl sulfamate] is formulated in 10-20% HPbCD in sterile water and administered intravenously (IV) or subcutaneously (SC) on a BIW (twice/week schedule; Monday and Thursday or Tuesday and Friday) for either 2-4 weeks.
(§2) Tumors were measured twice weekly using vernier calipers. Tumor volumes were calculated using the standard formula V=W^2×L/2,). When mean tumor volumes reached approximately 200 mm^3 for PHTX-24C, 220 mm^3 for PHTX-Lu132, 150 mm^3 for CTG-0256, 260 mm^3 for CTG-0486, 185 mm^3 for PHTX-17C, 260 mm^3 for CTG-0165, 150 mm^3 for PHTX-14B in the study of Compound 1 and paclitaxel, 180 mm^3 for PHTX-14B in the study of Compound 1 and docetaxel, 200 mm^3 for SKOV-3, 220 mm^3 for PHTX-02B in the study of Compound 1 and docetaxel, 250 mm^3 for PHTX-02B in the study of Compound 1 and paclitaxel, 195 mm^3 for CTG-0159, 180 mm^3 for CTG-0012 or 150 mm^3 for Calu-6, mice were randomized into groups of n=5-7/arm as described in the tables below, and injected with vehicle, Compound 1 or agents (docetaxel, paclitaxel, oxaliplatin, cisplatin or carboplatin), or the combination of Compound 1 plus one of the agents, at various doses and schedules as described in tables below. Tumor size and body weight were measured approximately twice a week for the duration of the study. Mice are euthanized when their tumor volume reached 10% of their body weight, or when the average tumor volume of a treatment or control group reached approximately 2000 mm^3. Tumor growth continued to be monitored after the dosing period in some studies. Average tumor volume is reported as a function of time for selected arms of selected studies in the Figures.
(§3) Measurements from day 0 to day 14, day 19, day 21, or day 28 are analyzed as specified in Tables below. All tumor volumes have a value of 1 added to them before log10 transformation. For each animal, the log tumor volume at day 0 is subtracted from the log tumor volume on the subsequent days. This difference vs. time is used to calculate an area under the curve (AUC) for each animal using the trapezoid rule. […] The synergy score for the combination of agents A and B is defined as
(§4) 100*(mean(AUCAB)−mean(AUCA)−mean(AUCB)+mean(AUCctl))/mean(AUCctl):
(§5) where AUCAB, AUCA, AUCB, and AUCctl are the AUC values for animals in the combination group, the A group, the B group, and the control group, respectively. The standard error of the synergy score is computed based on the variation in the AUC values among the animals. […] If the P-value is above 0.05, then the combination is considered to be additive. If the P-value is below 0.05, and the synergy score is less than zero, then the combination is considered to be synergistic.

[2] = system: CTG-0012 human primary triple negative breast cancer model; assay: CTG-0012 xenograft model, Compound 1 and paclitaxel; format: in vivo, Mus musculus/nu/nu mice; conditions: for Tumor Volume Day 21: in mm³ (unit assumed)
Description: (§6) Paclitaxel (Bristol-Myers Squibb Company) is formulated in 0.9% saline and administered by intravenous injection (IV) on every 4 days (Q4D) or once weekly (QW) at 10 and 20 mg/kg. […] Tumors were measured twice weekly using vernier calipers.

[3] = system: PHTX-14B breast xenograft; assay: PHTX-14B xenograft model, Compound 1 and paclitaxel; format: in vivo, Balb/c Nude Mice; conditions: for Tumor Volume Day 28: in mm³ (unit assumed)
Description: as §6

[4] = system: PHTX-14B breast xenograft; assay: PHTX-14B xenograft model, Compound 1 and docetaxel; format: in vivo, nude mice; conditions: for Tumor Volume Day 28: in mm³ (unit assumed)
Description: (§7) Docetaxel (Henry Schein, Inc., Pittsburgh Pa.) is formulated in 0.9% saline and administered by intravenous injection (IV) once weekly (QW) at 5 mg/kg or 10 mg/kg. […] Tumors were measured twice weekly using vernier calipers.

[5] = system: CTG-0159 human lung NSCLC xenograft; assay: CTG-0159 xenograft model, Compound 1 and docetaxel; format: in vivo, Mus musculus/nu/nu mice; conditions: for Tumor Volume Day 21: in mm³ (unit assumed)
Description: as §7

[6] = system: PHTX-132Lu non-small cell lung xenograft; conditions: for Tumor Volume Day 21: in mm³ (unit assumed)
Excerpt: The PHTX-132Lu non-small cell lung xenograft model was established from a patient-derived tumor collected during surgery from a person with lung cancer (Poorly Differentiated Adenocarcinoma). PHTX-132Lu tumor fragments (approximately 2×2×3 mm^3) are implanted into the subcutaneous space in the right dorsal flank of female CB-17 SCID mice (age 10 weeks, Charles River Laboratory, Wilmington, Mass.) using a 13-gauge trocar. When the mean tumor volume reached approximately 220 mm^3, the animals were randomized into 12 treatment groups (n=5/group).
Carboplatin (Teva Pharmaceuticals) is formulated in 0.9% saline and administered by IP injection once weekly (QW) at 25, 50, 60, and 75 mg/kg. The once weekly schedule is also described as every 7 days (Q7D).
as §1, §2, §3, §4, §5

Question: For NS(=O)(=O)OC[C@H]1C[C@@H](Nc2ccnc3cc(-c4cccc(SC(F)(F)F)c4)nn23)[C@H](O)[C@@H]1O [Compound 1, ((1R,2R,3S,4R)-2,3-dihydroxy-4-(2-(3-(trifluoromethylthio)phenyl)pyrazolo[1,5-a]pyrimidin-7-ylamino)cyclopentyl)methyl sulfamate], which “Tumor Volume Day 21” value ([1]; 6.25 mg/kg Compound 1 BIWx3 IV) is on record?
Answer: 988.8

Question: And the “Tumor Volume Day 21” value ([1]; 15 mg/kg Compound 1 BIWx3 IV)?
Answer: 1624.9

Question: What about the “Tumor Volume Day 21” value ([1]; 20 mg/kg Compound 1 BIWx3 IV) of the same compound?
Answer: 1476.3

Question: What about the “anti-tumor activity compared to vehicle control” value ([1]; single agent Compound 1 IV at 20, 15, 6.25 mg/kg BIW) of the same compound?
Answer: modest to weak anti-tumor activity

Question: What about the “Tumor Volume Day 21” value ([2]; 6.25 mg/kg Compound 1 BIWx3 IV) of the same compound?
Answer: 815

Question: And the “Tumor Volume Day 21” value ([2]; 15 mg/kg Compound 1 BIWx3 IV)?
Answer: 185

Question: What about the “Tumor Volume Day 21” value ([2]; 20 mg/kg Compound 1 BIWx3 IV) of the same compound?
Answer: 47.4

Question: What about the “anti-tumor activity compared to vehicle control” value ([2]; single agent Compound 1 IV at 6.25, 15, and 20 mg/kg BIW for 3 weeks) of the same compound?
Answer: modest to strong anti-tumor activity

Question: And the “Tumor Volume Day 28” value ([3]; 10 mg/kg Compound 1 BIWx4 SC)?
Answer: 690.0

Question: What about the “Tumor Volume Day 28” value ([3]; 20 mg/kg Compound 1 BIWx4 SC) of the same compound?
Answer: 480.6

Question: And the “Tumor Volume Day 28” value ([3]; 30 mg/kg Compound 1 BIWx4 SC)?
Answer: 165.1

Question: And the anti-tumor activity ([3]; single agent Compound 1 SC at 30 mg/kg BIW for 4 weeks)?
Answer: strong anti-tumor activity

Question: And the “anti-tumor activity compared to vehicle control” value ([3]; single agent Compound 1 SC at 10, and 20 mg/kg BIW for 4 weeks)?
Answer: modest anti-tumor activity

Question: What about the “Tumor Volume Day 28” value ([4]; 10 mg/kg Compound 1 BIWx3 SC) of the same compound?
Answer: 499.4

Question: And the “Tumor Volume Day 28” value ([4]; 20 mg/kg Compound 1 BIWx3 SC)?
Answer: 399.4

Question: What about the “tumor growth compared to the vehicle control group” value ([4]; single agent Compound 1 SC at 20 and 10 mg/kg BIW) of the same compound?
Answer: inhibited tumor growth

Question: And the “Tumor Volume Day 21” value ([5]; 6.25 mg/kg Compound 1 BIWx3 IV)?
Answer: 1618.9

Question: And the “Tumor Volume Day 21” value ([5]; 15 mg/kg Compound 1 BIWx3 IV)?
Answer: 2373.2

Question: What about the “Tumor Volume Day 21” value ([5]; 20 mg/kg Compound 1 BIWx3 IV) of the same compound?
Answer: 1376.2

Question: What about the tumor growth ([5]; Compound 1 alone at 20, 15, and 6.25 mg/kg IV BIW) of the same compound?
Answer: did not inhibit tumor growth

Question: And the “Tumor Volume Day 21” value ([6]; 5 mg/kg Compound 1 BIWx3 IV)?
Answer: 882.7

Question: What about the “Tumor Volume Day 21” value ([6]; 10 mg/kg Compound 1 BIWx3 IV) of the same compound?
Answer: 653.5

Question: What about the “Tumor Volume Day 21” value ([6]; 15 mg/kg Compound 1 BIWx3 IV) of the same compound?
Answer: 483.7

Question: And the “anti-tumor activity compared to vehicle control” value ([6]; single agent Compound 1 IV at 5, 10 and 15 mg/kg BIW)?
Answer: modest anti-tumor activity
